Active and inactive are the calls of the source. No cut-off for these calls is given here.
Key:
[1] = molecular target: T1, Programmed cell death 1 ligand 1 (Homo sapiens, UniProt Q9NZQ7); assay: Antagonist activity at human PDL1 assessed as inhibition of human PD1 interaction with human PDL1 by ELISA
[2] = molecular target: T1, Programmed cell death 1 ligand 1; assay: Antagonist activity at PDL1 overexpressing in IFN-gamma pretreated human LoVo cells assessed as restoration of human Jurkat T cell activation by measuring induction of IL-2 production at 10 ug/ml incubated for 24 hrs by ELISA; details: filed as antagonist, dose 10.0 µg/ml
[3] = tested on: CT26; assay: Antitumor activity against mouse CT26 cells xenografted in BALB/c mouse assessed as reduction in tumor growth at 10 mg/kg, ip administered for 7 days and measured on day 7 by caliper analysis; type: functional, organism-based; details: time 7.0 day
[4] = Toxicity in BALB/c mouse xenografted with mouse CT26 cells assessed as reduction in body weight at 10 mg/kg, ip administered for 7 days and measured on day 7; type: organism-based; details: in vivo, 168 h, time 7 day
[5] = tested on: CT26; assay: Antitumor activity against mouse CT26 cells assessed as reduction in cell viability at 10 to 100 ug/ml incubated for 24 to 72 hrs by MTT assay; type: functional, cell-based; details: dose 10-100 µg/ml, time 24-72 hrs
[6] = Toxicity in BALB/c mouse xenografted with mouse CT26 cells assessed as effect on kidney damage at 10 mg/kg, ip administered for 7 days and measured on day 7 by hematoxylin and eosin staining based assay; type: organism-based; details: in vivo, 168 h, time 7 day
[7] = Toxicity in BALB/c mouse xenografted with mouse CT26 cells assessed as effect on spleen damage at 10 mg/kg, ip administered for 7 days and measured on day 7 by hematoxylin and eosin staining based assay; type: organism-based; details: in vivo, 168 h, time 7 day
[8] = Toxicity in BALB/c mouse xenografted with mouse CT26 cells assessed as effect on liver damage at 10 mg/kg, ip administered for 7 days and measured on day 7 by hematoxylin and eosin staining based assay; type: organism-based; details: in vivo, 168 h, time 7 day
[9] = Toxicity in BALB/c mouse xenografted with mouse CT26 cells assessed as GOT level in blood at 10 mg/kg, ip administered for 7 days and measured on day 7 (reference value: 93 +/- 8 U/L); type: organism-based; details: in vivo, 168 h, time 7 day
[10] = Toxicity in BALB/c mouse xenografted with mouse CT26 cells assessed as GPT level in blood at 10 mg/kg, ip administered for 7 days and measured on day 7 (reference value: 50 +/- 7 U/L); type: organism-based; details: in vivo, 168 h, time 7 day
[11] = Toxicity in BALB/c mouse xenografted with mouse CT26 cells assessed as BUN level in blood at 10 mg/kg, ip administered for 7 days and measured on day 7 (reference value: 76 +/- 5 mg/dl); type: organism-based; details: in vivo, 168 h, time 7 day

T1 sequence (Q9NZQ7 whole entry): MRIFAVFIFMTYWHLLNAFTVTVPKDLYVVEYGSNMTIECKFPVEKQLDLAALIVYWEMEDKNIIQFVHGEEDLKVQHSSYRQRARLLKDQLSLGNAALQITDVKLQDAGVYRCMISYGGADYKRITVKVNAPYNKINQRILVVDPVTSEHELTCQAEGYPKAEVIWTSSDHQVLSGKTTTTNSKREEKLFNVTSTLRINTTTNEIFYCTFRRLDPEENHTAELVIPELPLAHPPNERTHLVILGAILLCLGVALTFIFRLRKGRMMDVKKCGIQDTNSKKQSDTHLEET

| Molecule | IC50 [1] [µM] | IL-2 induction activity [2] | TGI [3] | Activity [4] | Activity [5] | Activity [6] | Activity [7] | Activity [8] | Activity [9] [U/L] | Activity [10] [U/L] | Activity [11] [mg/dL] |
| --- | --- | --- | --- | --- | --- | --- | --- | --- | --- | --- | --- |
| H-GAISLAPKLQIND-OH | 4.4 | Active | inactive | Non-Toxic | inactive | – | – | – | – | – | – |
| CC[C@H](C)[C@H](NC(=O)[C@H](C)NC(=O)CN)C(=O)N[C@@H](CO)C(=O)N[C@@H](CC(C)C)C(=O)N[C@@H](C)C(=O)N1CCC[C@H]1C(=O)N[C@@H](CCCCN)C(=O)N[C@@H](CC(C)C)C(=O)N[C@@H](CCC(N)=O)C(=O)N[C@H](C(=O)N[C@@H](CC(N)=O)C(=O)N[C@H](CCC(=O)O)C(=O)O)[C@@H](C)CC | 1.56 | Active | Active | Non-Toxic | inactive | Non-Toxic | Non-Toxic | Non-Toxic | 82 | 54 | 69 |
| CC[C@H](C)[C@H](NC(=O)[C@H](C)NC(=O)CN)C(=O)N[C@@H](CO)C(=O)N[C@@H](CC(C)C)C(=O)N[C@@H](C)C(=O)N1CCC[C@H]1C(=O)N[C@@H](CCCCN)C(=O)N[C@@H](CC(C)C)C(=O)N[C@@H](CCC(N)=O)C(=O)N[C@H](C(=O)N[C@@H](CC(N)=O)C(=O)N[C@@H](CCC(=O)O)C(=O)O)[C@@H](C)CC | 5.6 | Active | inactive | Non-Toxic | inactive | – | – | – | – | – | – |
| CC[C@H](C)[C@@H]1NC(=O)[C@H](C)NC(=O)CNC(=O)CNC(=O)[C@@H](CCC(=O)O)NC(=O)[C@H](CC(N)=O)NC(=O)[C@H]([C@@H](C)CC)NC(=O)[C@H](CCC(N)=O)NC(=O)[C@H](CC(C)C)NC(=O)[C@H](CCCCN)NC(=O)[C@@H]2CCCN2C(=O)[C@H](C)NC(=O)[C@H](CC(C)C)NC(=O)[C@H](CO)NC1=O | 0.71 | Active | Active | Non-Toxic | inactive | Non-Toxic | Non-Toxic | Non-Toxic | 97 | 51 | 81 |
| H-CGAISLAPKAQIKES-OH | 19.2 | – | – | – | – | – | – | – | – | – | – |
| H-CGAISLAPKLQINES-OH | 80.7 | – | – | – | – | – | – | – | – | – | – |
| H-CGAISLAPKLQIKES-OH | 93.5 | – | – | – | – | – | – | – | – | – | – |

— ChEMBL document CHEMBL4680328, “Design, synthesis and evaluation of PD-L1 peptide antagonists as new anticancer agents for immunotherapy” (Bioorg Med Chem, 2021)
